Data published in US8476197B2, “Aminopropenoates as fungicides” (priority 2009, dated 2013).
Read-outs that look alike come from different tables or passages of the source. Marks after values point to notes of the source that are not given here.

Compound | Log P (pH 2.7) | Log P (pH 7.5) | Log P (pH 2.3)
CCOC(=O)C(C#N)=C(NCc1ccc(F)cn1)c1sc(C)nc1C(F)(F)F [Compound 204] | 2.98^[a] | – | –
C=CCOC(=O)C(C#N)=C(NC(C)c1nccs1)c1sccc1Br (centres unmarked) [Compound 205] | 3.31^[a] | – | –
CCOC(=O)C(C#N)=C(NC(C)c1nccs1)c1nc(Cl)ccc1Cl (centres unmarked) [Compound 208] | 3.02^[a] | – | –
CCOC(=O)C(C#N)=C(NC(C)c1cccs1)c1sccc1C(F)(F)F (centres unmarked) [Compound 209] | 3.99^[a] | – | –
COC(=O)C(C#N)=C(NC(C)c1cccs1)c1sc(C)nc1C(F)(F)F (centres unmarked) [Compound 210] | 3.46^[a] | – | –
CCOC(=O)C(C#N)=C(NC(C)c1cccs1)c1sccc1Br (centres unmarked) [Compound 211] | 3.92^[a] | – | –
CCOC(=O)C(C#N)=C(NC(C)c1cccs1)c1sc(C)nc1C(F)(F)F (centres unmarked) [Compound 212] | 3.8^[a] | – | –
CCOC(=O)C(C#N)=C(NC(C)c1cccs1)c1cn(C)nc1C(F)F (centres unmarked) [Compound 213] | 3.02^[a] | – | –
CC(C)NC(=O)C(C#N)=C(NC(C)c1nccs1)c1sccc1Br (centres unmarked) [Compound 214] | 3.11^[a] | – | –
CCOC(=O)C(C#N)=C(NC(C)c1sc(C)nc1C)c1sccc1Br (centres unmarked) [Compound 215] | 3.23^[a] | – | –
CCOC(=O)C(C#N)=C(NC(C)c1ncc(C)s1)c1sccc1C(F)(F)F (centres unmarked) [Compound 216] | 3.67^[a] | – | –
CCOC(=O)C(C#N)=C(NCc1ncc(C)s1)c1sccc1C(F)(F)F [Compound 217] | 3.19^[a] | – | –
CCOC(=O)C(C#N)=C(NC(C)c1sc(C)nc1C)c1sc(C)nc1C(F)(F)F (centres unmarked) [Compound 218] | 3.13^[a] | – | –
CCOC(=O)C(C#N)=C(NCc1ncc(C)s1)c1sc(C)nc1C(F)(F)F [Compound 219] | 3^[a] | – | –
CCOC(=O)C(C#N)=C(NCc1ncc(C)s1)c1sccc1Br [Compound 220] | 3.04^[a] | – | –
CCOC(=O)C(C#N)=C(NCc1nccs1)c1nc(Cl)ccc1Cl [Compound 226] | 2.6^[a] | – | –
CCOC(=O)C(C#N)=C(NCc1nccs1)c1cnc(Cl)cc1Cl [Compound 227] | 2.68^[a] | – | –
CCOC(=O)C(C#N)=C(NCc1nccs1)c1ncc(Cl)cc1Cl [Compound 228] | 2.7^[a] | – | –
CCOC(=O)C(C#N)=C(NCc1nccs1)c1c(C(F)F)nn(C)c1Cl [Compound 236] | 2.4^[a] | – | –
CCOC(=O)C(C#N)=C(NC(C)c1nc(C(=O)OCC)cs1)c1cccnc1Cl (centres unmarked) [Compound 241] | – | 2.7 | –
CCOC(=O)C(C#N)=C(NC(C)c1nc(C(=O)O)cs1)c1cccnc1Cl (centres unmarked) [Compound 244] | – | 1.1 | –

Compound | Log P (pH 2.7) | Log P (pH 7.5) | Log P (pH 2.3)
CCOC(=O)C(C#N)=C(NCc1nc(C)cs1)c1ccsc1Br [Compound 246] | 2.94^[a] | – | –
CCOC(=O)C(C#N)=C(NCc1ncc(C)s1)c1ccsc1Br [Compound 247] | 3^[a] | – | –
CCOC(=O)C(C#N)=C(NCc1nc2ccccc2s1)c1ccsc1Br [Compound 248] | 3.55^[a] | – | –
CCOC(=O)C(C#N)=C(NCc1nc(C(F)(F)F)cs1)c1ccsc1Br [Compound 249] | 3.42^[a] | – | –
CCOC(=O)C(C#N)=C(NCc1ccc(F)cn1)c1ccsc1Br [Compound 251] | 3.04^[a] | – | –
CCOC(=O)C(C#N)=C(NCc1nccs1)c1ccncc1Cl [Compound 259] | 2.11^[a] | – | –
CCOC(=O)C(C#N)=C(NCc1nccs1)c1cnccc1C(F)(F)F [Compound 272] | 2.4^[a] | – | –
CCOC(=O)C(C#N)=C(NC1(c2ccccn2)CC1)c1cccnc1Cl [Compound 284] | 2.56^[a] | – | –
CCOC(=O)C(C#N)=C(Nc1cccnc1O)c1cccnc1Cl [Compound 286] | 1.9^[a] | – | –
CCOC(=O)C(C#N)=C(Nc1ccncc1C)c1cccnc1Cl [Compound 293] | 1.45^[a] | – | –
C=CCOC(=O)C(C#N)=C(NCc1nccs1)c1cn(C)nc1C(F)F [Compound 306] | 2.25^[a] | – | –
CCOC(=O)C(C#N)=C(NC(C)c1nccs1)c1c(C(F)(F)F)nn(C)c1Cl (centres unmarked) [Compound 311] | 3.2^[a] | – | –
CCOC(=O)C(C#N)=C(NC(C)c1nccs1)c1cn(C)nc1C(C)(F)F (centres unmarked) [Compound 312] | 2.62^[a] | – | –
CCOC(=O)C(C#N)=C(NC(C)c1ccccn1)c1c(C(F)(F)F)nn(C)c1Cl (centres unmarked) [Compound 314] | 3.24^[a] | – | –
CCOC(=O)C(C#N)=C(NC(C)c1ccccn1)c1cn(C)nc1C(C)(F)F (centres unmarked) [Compound 315] | 2.57^[a] | – | –
CCOC(=O)C(C#N)=C(NC(C)c1ccccn1)c1c(C(F)F)nn(C)c1F (centres unmarked) [Compound 316] | 2.73^[a] | – | –
C#CCNC(=O)C(C#N)=C(NC(C)c1nccs1)c1cccnc1Cl (centres unmarked) [Compound 317] | 2.03^[a] | – | –
CCOC(=O)C(C#N)=C(NC(C)c1nccs1)c1ccncc1F (centres unmarked) [Compound 318] | 2.41^[a] | – | –
CCOC(=O)C(C#N)=C(NCc1csc(-c2ccccc2)n1)c1cccnc1Cl [Compound 319] | 3.63^[a] | – | –
CCOC(=O)C(C#N)=C(NC(C)Cc1ccncc1)c1cccnc1Cl (centres unmarked) [Compound 320] | 1.64^[a] | – | –
CCOC(=O)C(C#N)=C(NC(C)c1cnn(C)c1)c1cccnc1Cl (centres unmarked) [Compound 321] | 2.2^[a] | – | –

Compound | Log P (pH 2.7) | Log P (pH 7.5) | Log P (pH 2.3)
CCOC(=O)C(C#N)=C(NC(C)c1csc(Cl)n1)c1cccnc1Cl (centres unmarked) [Compound 322] | 3.3^[a] | – | –
CCOC(=O)C(C#N)=C(NCc1ccc2ccccc2n1)c1cccnc1Cl [Compound 323] | 3.13^[a] | – | –
CC(NC(=C(C#N)C(=O)NCC(F)(F)F)c1cccnc1Cl)c1nccs1 (centres unmarked) [Compound 324] | 2.44^[a] | – | –
CCOC(=O)C(C#N)=C(NC(C)c1ccccn1)c1cn(C)nc1C(F)F (centres unmarked) [Compound 325] | 2.39^[a] | – | –
CCOC(=O)C(C#N)=C(NC(C)c1nccs1)c1cn(C)nc1C(F)F (centres unmarked) [Compound 326] | 2.44^[a] | – | –
COCCNC(=O)C(C#N)=C(NC(C)c1nccs1)c1cccnc1Cl (centres unmarked) [Compound 327] | 1.93^[a] | – | –
CCNC(=O)C(C#N)=C(NC(C)c1nccs1)c1cccnc1Cl (centres unmarked) [Compound 328] | 2.07 | 2.05 | –
CCOC(=O)C(C#N)=C(NC(C)c1ncccn1)c1cccnc1Cl (centres unmarked) [Compound 329] | 2.13^[a] | – | –
CCOC(=O)C(C#N)=C(NC(C)c1ccncn1)c1cccnc1Cl (centres unmarked) [Compound 330] | 2.01^[a] | – | –
CCOC(=O)C(C#N)=C(NCC(C)c1nccs1)c1cccnc1Cl (centres unmarked) [Compound 331] | 2.57^[a] | – | –
COC(=O)C(C#N)=C(NC(C)c1ccc(Cl)cc1)c1cccnc1Cl (centres unmarked) [Compound 332] | 3.24^[a] | – | –
COC(=O)C(C#N)=C(Nc1ccccc1SC)c1cccnc1Cl [Compound 334] | – | 2.82^[c]; 2.82^[b] | 2.82^[c]; 2.82^[b]
COC(=O)C(C#N)=C(Nc1ccccc1OC)c1cccnc1Cl [Compound 335] | – | 2.56 | 2.58
COC(=O)C(C#N)=C(NCc1ccc(Cl)cc1)c1cccnc1Cl [Compound 336] | – | 2.96 | 2.98
COC(=O)C(C#N)=C(NC(C)(C)c1ccc(Cl)cc1)c1cccnc1Cl [Compound 337] | 3.33^[a] | – | –
COC(=O)C(C#N)=C(NCc1ccc(Cl)nc1)c1cccnc1Cl [Compound 338] | – | 2.1 | 2.11
COC(=O)C(C#N)=C(Nc1cccc(SC)c1)c1cccnc1Cl [Compound 339] | – | 2.83 | 3.04
CCOC(=O)C(C#N)=C(Nc1ccccc1SC)c1cccnc1Cl [Compound 341] | – | 3.17 | 3.32
CCOC(=O)C(C#N)=C(NC(C)c1ccc(Cl)cc1)c1cccnc1Cl (centres unmarked) [Compound 342] | – | 3.61 | –
CCOC(=O)C(C#N)=C(Nc1ccccc1SC)c1ccc(C)nc1Cl [Compound 343] | – | 3.41 | 3.57
CSc1ccccc1NC(=C(C#N)C(=O)OCC(F)(F)F)c1cccnc1Cl [Compound 344] | – | 3.21 | 3.55

Compound | Log P (pH 2.7) | Log P (pH 7.5) | Log P (pH 2.3)
CCOC(=O)C(C#N)=C(NC(C)c1ccc(Cl)cc1)c1cccnc1Cl (centres unmarked) [Compound 345] | – | 3.63 | –
CCOC(=O)C(C#N)=C(Nc1ccccc1SC)c1cc(Cl)cnc1Cl [Compound 346] | – | 3.7 | 3.94
CSc1ccccc1NC(=C(C#N)C(=O)OCC(C)C)c1cccnc1Cl [Compound 347] | – | 3.94 | 4.15
CCOC(=O)C(C#N)=C(NC(C)c1ccc(Cl)cc1)c1cn(C)nc1C(F)F (centres unmarked) [Compound 348] | 3.6^[a] | – | –
CCOC(=O)C(C#N)=C(Nc1ccccc1SC)c1cn(C)nc1C(F)F [Compound 349] | 3.13^[a] | – | –
CCOC(=O)C(C#N)=C(Nc1ccccc1SC)c1ncc(C(F)(F)F)cc1Cl [Compound 350] | 4.26^[a] | – | –
CCOC(=O)C(C#N)=C(NC(C)c1ccc(Cl)cc1)c1ncc(C(F)(F)F)cc1Cl (centres unmarked) [Compound 351] | 4.56^[a] | – | –
CCOC(=O)C(C#N)=C(NC(C)c1ccc(Cl)cc1)c1c(C)nn(C)c1F (centres unmarked) [Compound 352] | 3.62^[a] | – | –
CCOC(=O)C(C#N)=C(Nc1ccccc1SC)c1c(C)nn(C)c1F [Compound 354] | 3.21^[a] | – | –
CCOC(=O)C(C#N)=C(NC(C)c1ccc(Cl)cc1)c1nsc(Cl)c1Cl (centres unmarked) [Compound 355] | 4.65^[a] | – | –
COC(=O)C(C#N)=C(NC(C)c1ccc(Cl)cc1)c1cn(C)nc1C(F)F (centres unmarked) [Compound 356] | 3.31^[a] | – | –
COC(=O)C(C#N)=C(Nc1ccccc1SC)c1cn(C)nc1C(F)F [Compound 357] | 2.8^[a] | – | –
CCOC(=O)C(C#N)=C(Nc1ccccc1SC)c1nsc(Cl)c1Cl [Compound 358] | 4.31^[a] | – | –
CCOC(=O)C(C#N)=C(Nc1ccccc1SC)c1ccc(Cl)nc1Cl [Compound 360] | – | 3.79 | 3.97
CCOC(=O)C(C#N)=C(NC(C)c1ccc(Cl)cc1)c1conc1C (centres unmarked) [Compound 362] | 3.62^[a] | – | –
CCOC(=O)C(C#N)=C(Nc1ccccc1SC)c1conc1C [Compound 363] | 3.21^[a] | – | –
CCOC(=O)C(C#N)=C(NC(C)c1ccc(Cl)cc1)c1sccc1Br (centres unmarked) [Compound 365] | 4.42^[a] | – | –
CCOC(=O)C(C#N)=C(Nc1ccccc1SC)c1sccc1Br [Compound 366] | 3.96^[a] | – | –
CCOC(=O)C(C#N)=C(NC(C)c1ccc(Cl)cc1)c1c(C)nn(C)c1Cl (centres unmarked) [Compound 367] | 3.8^[a] | – | –
CCOC(=O)C(C#N)=C(NC(C)c1ccc(Cl)cc1)c1sccc1C(F)(F)F (centres unmarked) [Compound 368] | 4.47^[a] | – | –
